{"source": "patent US11161845B2", "about": "“Pyrrolopyridine-aniline compounds for treatment of dermal disorders” (Nflection Therapeutics, Inc., priority 2017, dated 2021)", "key": {"[1]": {"assay": "Compound levels in neck/back skin (LCMS), in vivo mouse model", "set-up": "species or system mice", "details": "for concentration at 1 h / concentration at 2 h: male, C57BL/6J, mouse, neck/back skin; for concentration at 1 h: 1 h after final application; for concentration at 2 h: 2 h after final application; for Compound Levels in Neck/Back Skin: pre-dose (16 h)", "description": "Week 4 (Experiment end): Skin and blood were collected right before the last morning dose (N=3), 1 hour (N=3 mice), and 2 hours (N=3 mice) after final application; Blood draw: Plasma compound levels (LCMS); Skin biopsy: formalin fixed for histology and p-ERK staining, flash frozen for Western analysis and skin compound levels (LCMS)\nSkin biopsy and GI tract sampling: Skin was wiped down with 100% ethanol and a 1 cm^2 biopsy was obtained from compound application site each mouse at the 25 day end of experiment (except as noted below). The skin was biopsied prior to final dose from 3 mice, 1 hour after last compound application from 3 mice, 2 hours after last compound application from 3 mice. Half of the specimen were immediately flash frozen for LCMS analysis and Western Blot Analysis. Half of the specimen was fixed for 24 hours in 10% formalin and then transferred to ethanol for immunohistochemistry. Gastrointestinal tract was also formalin fixed overnight then transferred to 70% ETOH for storage.\nCompound level analysis: Liquid chromatography with mass spectrometry method (LCMS) was used to detect compound levels in the skin and plasma. Tissues were preprocessed prior to LCMS as follows. Tissues were minced and incubated with collagenase and then finally homogenized using the stainless steel beads prior to LCMS analysis. Calibration curves and a QC test were run with each assay."}, "C57BL/6J mice": {"tested_on": "C57BL/6J mice", "assay": "In vivo mouse model, skin and systemic toxicity of topical application (survival)", "details": "for Survival Rates: twice daily 5 days per week, 10% BSA", "quoted_text": "This study was designed to assess the skin toxicity and gross systemic toxicity of twice daily topical administration of a compound disclosed herein, as well as to evaluate the effect of metabolic lability on systemic toxicity.\nStudy Objective: The primary objective of this study was to characterize the skin and systemic toxicity of twice daily topical application of a compound disclosed herein, applied for 25 days in mice. Secondary objectives included determination of the 25-day skin and plasma compound levels of formulations containing three dosages of compound of Ex. 2 after application to 10% body surface area (BSA) murine skin; assessment of gross systemic toxicity from the application of compound of Ex. 2 after twice daily application to 10% BSA murine skin for 25 days; and determination of the correlation of skin and plasma compound levels with associated toxicity.\nMice: 8 week old male C57BL/6J mice (Jackson Laboratories) were shaved prior to start of study and weekly.\nCompound application: Compounds were dissolved in a 50% DMSO/50% propyelene glycol vehicle. 0.125 mL of the following compounds were applied to the shaved dorsal back of mice (10% BSA) twice daily for 5 days per week for a total of 24 days. The second dose was applied 8 hours after first morning dose. All mice were shaved once per week at application site.\nOral trametinib was dissolved in 0.5% hydroxypropyl methylcellulose (Sigma-Aldrich) and 0.2% Tween-80 (Sigma-Aldrich) and administered by oral gavage (0.2 mL bolus or 10 mg/kg) once daily 5 days per week. These mice were also shaved weekly.\nWeekly (Weeks 0-4): body weight measurements weekly, starting week 0 until experiment end; photographs of dorsal back and face of each mouse weekly, starting week 0 until experiment end; skin; and gross stool analysis assessed weekly for heme color, starting week 0 until experiment end.\nThe study planned for the mice to be sacrificed at Day 25.\nKaplan Meier curves were analyzed to determine progression to skin toxicity for each arm as compared with vehicle. T-test were used to compare compound levels at each dosage. Ki-67+ cells and p-ERK expression were also assessed on a cellular level via immunostaining. Western blots informed semi-quantitative changes in p-ERK expression."}, "hERG channel protein": {"target": "T1, hERG channel protein (Homo sapiens, UniProt Q12809)", "T1 construct": "purchased ThermoFisher PV5365", "T1 sequence (Q12809 whole entry)": "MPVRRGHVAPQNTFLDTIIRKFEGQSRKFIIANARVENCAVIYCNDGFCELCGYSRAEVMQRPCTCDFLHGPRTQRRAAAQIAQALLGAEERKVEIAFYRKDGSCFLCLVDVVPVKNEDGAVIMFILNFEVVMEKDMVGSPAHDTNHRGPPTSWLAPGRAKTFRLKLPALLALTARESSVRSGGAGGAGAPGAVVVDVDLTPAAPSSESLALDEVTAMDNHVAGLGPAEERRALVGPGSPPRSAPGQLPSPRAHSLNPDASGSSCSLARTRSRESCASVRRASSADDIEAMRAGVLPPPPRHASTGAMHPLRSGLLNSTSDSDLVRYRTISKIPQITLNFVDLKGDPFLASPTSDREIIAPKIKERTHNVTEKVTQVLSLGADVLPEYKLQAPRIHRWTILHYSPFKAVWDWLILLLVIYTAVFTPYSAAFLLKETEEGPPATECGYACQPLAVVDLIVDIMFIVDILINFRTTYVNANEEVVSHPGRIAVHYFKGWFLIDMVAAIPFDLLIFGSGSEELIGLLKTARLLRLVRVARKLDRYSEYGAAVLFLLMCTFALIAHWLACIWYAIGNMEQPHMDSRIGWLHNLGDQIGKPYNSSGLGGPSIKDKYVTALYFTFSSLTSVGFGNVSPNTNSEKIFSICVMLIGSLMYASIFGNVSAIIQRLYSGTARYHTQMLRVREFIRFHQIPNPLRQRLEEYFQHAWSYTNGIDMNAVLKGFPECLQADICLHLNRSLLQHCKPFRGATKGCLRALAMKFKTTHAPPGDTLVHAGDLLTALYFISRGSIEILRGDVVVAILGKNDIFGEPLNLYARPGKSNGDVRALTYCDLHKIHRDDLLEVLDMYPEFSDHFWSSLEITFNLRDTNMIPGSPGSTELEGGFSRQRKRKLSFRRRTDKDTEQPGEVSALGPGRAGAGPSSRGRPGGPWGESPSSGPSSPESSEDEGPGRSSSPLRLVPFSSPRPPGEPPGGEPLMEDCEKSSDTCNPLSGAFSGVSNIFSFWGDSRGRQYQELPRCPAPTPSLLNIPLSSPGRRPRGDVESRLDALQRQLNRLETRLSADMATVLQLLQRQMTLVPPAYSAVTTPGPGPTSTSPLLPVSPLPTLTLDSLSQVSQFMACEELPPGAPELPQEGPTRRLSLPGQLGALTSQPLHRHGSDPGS", "assay": "hERG screening assay (Predictor hERG FP)", "assay_type": "binding", "details": "fluorescence polarization tracer displacement", "description": "hERG screening was conducted using a procedure similar to the procedure described by Piper et al. (Piper, D. R. et al., Assay Drug Dev. Technol. 2008, 6(2):213-223). The Predictor hERG FP assay (available from ThermoFisher, cat. no. PV5365) is a homogenous, fluorescence polarization biochemical-based format utilizing a membrane fraction containing hERG channel protein (Predictor hERG Membrane) and a high affinity, red-fluorescent hERG channel ligand (Predictor hERG Tracer Red). When the Predictor hERG Tracer ligand is bound to the hERG channel it produces high fluorescence polarization values. Compounds that bind to the hERG channel protein (competitors) displace the Predictor hERG Tracer Red resulting in decreased fluorescence polarization values.\nTest compounds were solubilized in DMSO at 100× (or greater) of the desired starting concentration. Screening was conducted with a final concentration of 1% DMSO. For 10-point titrations, 3-fold serial dilutions were performed from the starting concentrations. The assay buffer used was 25 mM HEPES (pH 7.5), 15 mM KCl, 1 mM MgCl2, and 0.05% Pluronic F-127 (available from Sigma-Aldrich).\nPredictor hERG membranes were stored as a 2× stock at −80° C. Each membrane lot was titrated to identify the concentration of membranes required to obtain ˜70% bound tracer. Before setting up the assay the membranes were thawed in a 37° C. water bath and stored at room temperature. To avoid light scatter caused by large membrane particulates the membranes were sonicated until a homogeneous solution free of particulates is obtained. […]\n384 well untreated low-volume polystyrene microplates (Corning Cat. #4511) were used for the assay. […] The assay plate was read on a fluorescence plate reader (Tecan Safire^2) and the data was analyzed. […]\nAssay blank control wells consisted of Predictor hERG Membranes and Assay Buffer. The blank wells were used for background subtraction of raw parallel and perpendicular fluorescence values prior to the calculation of polarization values. […]"}}}
{"smiles": "Cn1c(Nc2ccc(I)cc2F)c(C(=O)NOCCO)c2cccnc21", "note": "[Example 2, 2-((2-Fluoro-4-iodophenyl)amino)—N-(2-hydroxyethoxy)-1-methyl-1H-pyrrolo[2,3-b]pyridine-3-carboxamide]", "values": [{"measurement": "concentration at 1 h", "setting": "[1]; topical 0.1%", "value": 14, "unit": "µg/mL"}, {"measurement": "concentration at 2 h", "setting": "[1]; topical 0.1%", "value": 4.88, "unit": "µg/mL"}, {"measurement": "concentration at 1 h", "setting": "[1]; topical 0.5%", "value": 289, "unit": "µg/mL"}, {"measurement": "concentration at 2 h", "setting": "[1]; topical 0.5%", "value": 81.6, "unit": "µg/mL"}, {"measurement": "concentration at 1 h", "setting": "[1]; topical 1%", "value": 683, "unit": "µg/mL"}, {"measurement": "concentration at 2 h", "setting": "[1]; topical 1%", "value": 378, "unit": "µg/mL"}, {"measurement": "Compound Levels in Neck/Back Skin", "setting": "[1]; topical 0.1%", "value": 5.62, "unit": "µg/mL"}, {"measurement": "Compound Levels in Neck/Back Skin", "setting": "[1]; topical 0.5%", "value": 49.17, "unit": "µg/mL"}, {"measurement": "Compound Levels in Neck/Back Skin", "setting": "[1]; topical 1%", "value": 14.73, "unit": "µg/mL"}, {"measurement": "Survival Rates", "setting": "C57BL/6J mice; topical 0.1%, Day 0", "value": 100, "unit": "%"}, {"measurement": "Survival Rates", "setting": "C57BL/6J mice; topical 0.1%, Day 3", "value": 100, "unit": "%"}, {"measurement": "Survival Rates", "setting": "C57BL/6J mice; topical 0.1%, Day 6", "value": 100, "unit": "%"}, {"measurement": "Survival Rates", "setting": "C57BL/6J mice; topical 0.1%, Day 9", "value": 100, "unit": "%"}, {"measurement": "Survival Rates", "setting": "C57BL/6J mice; topical 0.1%, Day 12", "value": 100, "unit": "%"}, {"measurement": "Survival Rates", "setting": "C57BL/6J mice; topical 0.1%, Day 15", "value": 100, "unit": "%"}, {"measurement": "Survival Rates", "setting": "C57BL/6J mice; topical 0.1%, Day 18", "value": 100, "unit": "%"}, {"measurement": "Survival Rates", "setting": "C57BL/6J mice; topical 0.1%, Day 21", "value": 100, "unit": "%"}, {"measurement": "Survival Rates", "setting": "C57BL/6J mice; topical 0.1%, Day 24", "value": 100, "unit": "%"}, {"measurement": "Survival Rates", "setting": "C57BL/6J mice; topical 0.1%, Day 25", "value": 100, "unit": "%"}, {"measurement": "Survival Rates", "setting": "C57BL/6J mice; topical 0.5%, Day 0", "value": 100, "unit": "%"}, {"measurement": "Survival Rates", "setting": "C57BL/6J mice; topical 0.5%, Day 3", "value": 100, "unit": "%"}, {"measurement": "Survival Rates", "setting": "C57BL/6J mice; topical 0.5%, Day 6", "value": 100, "unit": "%"}, {"measurement": "Survival Rates", "setting": "C57BL/6J mice; topical 0.5%, Day 9", "value": 100, "unit": "%"}, {"measurement": "Survival Rates", "setting": "C57BL/6J mice; topical 0.5%, Day 12", "value": 100, "unit": "%"}, {"measurement": "Survival Rates", "setting": "C57BL/6J mice; topical 0.5%, Day 15", "value": 100, "unit": "%"}, {"measurement": "Survival Rates", "setting": "C57BL/6J mice; topical 0.5%, Day 18", "value": 100, "unit": "%"}, {"measurement": "Survival Rates", "setting": "C57BL/6J mice; topical 0.5%, Day 21", "value": 100, "unit": "%"}, {"measurement": "Survival Rates", "setting": "C57BL/6J mice; topical 0.5%, Day 24", "value": 100, "unit": "%"}, {"measurement": "Survival Rates", "setting": "C57BL/6J mice; topical 0.5%, Day 25", "value": 100, "unit": "%"}, {"measurement": "Survival Rates", "setting": "C57BL/6J mice; topical 1%, Day 0", "value": 100, "unit": "%"}, {"measurement": "Survival Rates", "setting": "C57BL/6J mice; topical 1%, Day 3", "value": 100, "unit": "%"}, {"measurement": "Survival Rates", "setting": "C57BL/6J mice; topical 1%, Day 6", "value": 100, "unit": "%"}, {"measurement": "Survival Rates", "setting": "C57BL/6J mice; topical 1%, Day 9", "value": 100, "unit": "%"}, {"measurement": "Survival Rates", "setting": "C57BL/6J mice; topical 1%, Day 12", "value": 100, "unit": "%"}, {"measurement": "Survival Rates", "setting": "C57BL/6J mice; topical 1%, Day 15", "value": 100, "unit": "%"}, {"measurement": "Survival Rates", "setting": "C57BL/6J mice; topical 1%, Day 18", "value": 100, "unit": "%"}, {"measurement": "Survival Rates", "setting": "C57BL/6J mice; topical 1%, Day 21", "value": 100, "unit": "%"}, {"measurement": "Survival Rates", "setting": "C57BL/6J mice; topical 1%, Day 24", "value": 100, "unit": "%"}, {"measurement": "Survival Rates", "setting": "C57BL/6J mice; topical 1%, Day 25", "value": 100, "unit": "%"}, {"measurement": "systemic toxicity compared to topical Trametinib", "setting": "C57BL/6J mice; topical application", "value": "less systemic toxicity"}, {"measurement": "survival", "setting": "C57BL/6J mice; topically applied 0.1%, 0.5%, and 1% formulations, 25 days", "value": "All mice survived"}, {"measurement": "IC50", "setting": "hERG channel protein", "value": "> 30", "unit": "µM"}]}
